Biological target: T1, SMS2 (Homo sapiens, UniProt Q8NHU3)
T1 construct: CAO, Yu research team, National Protein Scientific Center (Shanghai); supplied by an outside laboratory, not a commercial vendor
T1 sequence (Q8NHU3 1-365): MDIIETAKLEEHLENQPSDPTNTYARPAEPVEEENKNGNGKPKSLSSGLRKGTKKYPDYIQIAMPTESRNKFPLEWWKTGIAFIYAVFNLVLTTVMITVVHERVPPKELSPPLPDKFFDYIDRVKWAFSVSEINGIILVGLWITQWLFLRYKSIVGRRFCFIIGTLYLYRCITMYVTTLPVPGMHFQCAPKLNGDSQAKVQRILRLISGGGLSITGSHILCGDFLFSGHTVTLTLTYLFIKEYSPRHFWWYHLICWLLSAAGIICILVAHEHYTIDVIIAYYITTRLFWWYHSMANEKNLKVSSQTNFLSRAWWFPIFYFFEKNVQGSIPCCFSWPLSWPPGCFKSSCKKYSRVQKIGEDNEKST
Test: SMS2 inhibitory activity in vitro, HPLC fluorescence quantitative detection (C6-NBD-ceramide to C6-NBD-SM)
Type: biochemical
Details: 1 µM test compound; SMS2 pure enzyme; 37°C, 30 minutes; average of two measurements; read-out: Inhibition rate on SMS2 at C/µM 1
Excerpt: • 1. Electro-thermostatic water bath, from Shanghai Yiheng Technology Co., Ltd.); • 2. Vortex Mixer, with model ID of XW-80A, from Shanghai Jingke Industrial Co., Ltd.; • 3. […] High Performance Liquid Chromatography Agilent 1100, equipped with a quaternary pump, vacuum degassing, and FLD fluorescence detector, from Agilent Technologies, Palo Alto, CA, USA; • 5. HPLC column COSMOSIL 5C18-MS-II (4.6mm I.D. X 250mm); • 6. […] The organic solvents used in the present disclosure were purchased from Shanghai National Reagent Company, wherein methanol was pure chromatography; water was ultra-pure water which is filtrated by Milli-Q pump, deionized and ultra-filtrated with 0.22 µm membrane; and other biological consumables were purchased from domestic companies; • 8. Preparation of test compound solutions: each test compound was accurately weighed and dissolved in an appropriate volume of DMSO to prepare a 10 mmol/L stock solution. The stock solution was then diluted with an appropriate volume of DMSO to achieve the desired working concentration; • 9. SMS2 pure enzyme, DDM solution and buffer solution were provided by CAO, Yu research team from National Protein Scientific Center (Shanghai).
79 µl of the diluted enzyme solution were transferred into a 1.5 mL EP tube, 1 µl of inhibitor DMSO solution were added thereto, vortexing for 15 seconds, followed by standing at room temperature for 5 minutes. 20 µl of a mixed solution of DMPC and C6-NBD-ceramide were added, vortexing for 15 seconds, and incubated at 37°C for 30 minutes. 200 µl of anhydrous ethanol were added to quench the reaction, vortexing for 15 seconds. 200 µl of the reaction solution were taken out and stored at 4°C and avoided light for HPLC detection.
The peak area values of A(sm) and A(ceramide) in the HPLC chromatogram corresponding to C6-NBD-SM and C6-NBD-Ceramide in the DMSO group and inhibitor group samples were analyzed and recorded, and the inhibition rate of the test compound was calculated according to the following formula. Inhibition rate = (Peak area values of DMSO group−Peak area values of Inhibitor group)/(Peak area values of DMSO group) × 100% [formula]

First: O=C(Nc1cc(F)c(F)c(F)c1)c1sccc1OCc1ccccc1 [12-10]
Second: O=C(Nc1cc(C(F)(F)F)ccn1)c1sccc1OCc1ccccc1 [1-5, 3-benzyloxy-N-(4-(trifluoromethyl)pyridin-2-yl)thiophene-2-carboxamide]
The inhibition at 1 µM of the first is lower: -30% for the first, 47% for the second.

Compared with `O=C(Nc1cccnc1)c1sccc1OCc1ccccc1OCCCCCCCl` [1-76, 3-(2-(6-chlorohexyloxy)benzyloxy)-N-(pyridin-3-yl)thiophene-2-carboxamide], `O=C(Nc1cccnc1)c1sccc1OCc1ccccc1OCCCCCl` [1-75, 3-(2-(4-chlorobutoxy)benzyloxy)-N-(pyridin-3-yl)thiophene-2-carboxamide] is higher in inhibition at 1 µM: 93% for the first, 97% for the second.

Compared with `CCc1ccccc1COc1ccsc1C(=O)Nc1cccnc1` [1-81, 3-(2-ethylbenzyloxy)-N-(pyridin-3-yl)thiophene-2-carboxamide], `CC(C)Oc1ccccc1COc1ccsc1C(=O)Nc1cccnc1` [1-82, 3-(2-isopropoxybenzyloxy)-N-(pyridin-3-yl)thiophene-2-carboxamide] is higher in inhibition at 1 µM: 73% for the first, 80% for the second.

First: CCCCCCOc1cc(Cl)ccc1COc1ccsc1C(=O)Nc1cccnc1 [1-71, 3-(4-chloro-2-(hexyloxy)benzyloxy)-N-(pyridin-3-yl)thiophene-2-carboxamide]
Second: CCCCCCOc1ccc(Cl)cc1COc1ccsc1C(=O)Nc1cccnc1 [1-73, 3-(5-chloro-2-(hexyloxy)benzyloxy)-N-(pyridin-3-yl)thiophene-2-carboxamide]
The inhibition at 1 µM of the first is higher: 95% for the first, 90% for the second.

Compared with `O=C(Nc1cccnc1)c1sccc1OCc1ccccc1C(F)(F)F` [1-59, 3-(2-(trifluoromethyl)benzyloxy)-N-(pyridin-3-yl)thiophene-2-carboxamide], `O=C(Nc1cccnc1)c1sccc1OCc1ccccc1OC(F)(F)F` [1-53, 3-(2-(trifluoromethoxy)benzyloxy)-N-(pyridin-3-yl)thiophene-2-carboxamide] is higher in inhibition at 1 µM: 71% for the first, 87% for the second.

Compared with `COc1ccc(OC)c(COc2ccsc2C(=O)Nc2cccnc2)c1` [1-98, 3-(2,5-dimethoxybenzyloxy)-N-(pyridin-3-yl)thiophene-2-carboxamide], `O=C(Nc1cccnc1)c1sccc1OCc1cc(O)ccc1Cl` [1-24, 3-(2-chloro-5-hydroxybenzyloxy)-N-(pyridin-3-yl)thiophene-2-carboxamide] is higher in inhibition at 1 µM: 50% for the first, 78% for the second.

First: O=C(Nc1cccnc1)c1sccc1OCc1cccc2ccccc12 [1-10, 3-(naphthalen-1-ylmethoxy)-N-(pyridin-3-yl)thiophene-2-carboxamide]
Second: O=C(Nc1cccnc1)c1sccc1OCc1ccccc1-c1ccccc1 [1-94, 3-[(1,1'-Biphenyl-2-yl)methoxy]-N-(pyridin-3-yl)thiophene-2-carboxamide]
The inhibition at 1 µM of the first is higher: 86% for the first, 52% for the second.

First: O=C(Nc1cccnc1)c1sccc1OCc1csc2ccccc12 [1-66, 3-(benzo[b]thiophen-3-ylmethoxy)-N-(pyridin-3-yl)thiophene-2-carboxamide]
Second: O=C(Nc1cccnc1)c1sccc1OCc1ccccc1OC(F)F [1-85, 3-(2-difluoro-methoxybenzyloxy)-N-(pyridin-3-yl)thiophene-2-carboxamide]
The inhibition at 1 µM of the first is higher: 86% for the first, 73% for the second.

First: CCCCCCOc1c(Cl)cccc1COc1ccsc1C(=O)Nc1cccnc1 [1-80, 3-(3-chloro-2-(hexyloxy)benzyloxy)-N-(pyridin-3-yl)thiophene-2-carboxamide]
Second: CCCOc1cccc(Cl)c1COc1ccsc1C(=O)Nc1cccnc1 [1-39, 3-(2-chloro-6-propoxybenzyloxy)-N-(pyridin-3-yl)thiophene-2-carboxamide]
The inhibition at 1 µM of the first is higher: 97% for the first, 74% for the second.

Going from `O=C(Nc1cccnc1)c1sccc1OCc1c2ccccc2cc2ccccc12` [1-13, 3-(anthracen-9-ylmethoxy)-N-(pyridin-3-yl)thiophene-2-carboxamide] to `O=C(Nc1cccnc1)c1sccc1OCc1ccccc1OCCc1ccccc1` [1-70, 3-(2-(phenylethoxy)benzyloxy)-N-(pyridin-3-yl)thiophene-2-carboxamide], the inhibition at 1 µM rises from 50% to 95%.

Same assay, conditions: 10 µM test compound; SMS2 pure enzyme; 37°C, 30 minutes; average of two measurements; read-out: Inhibition rate on SMS2 at C/µM 10

First: Cc1cncc(NC(=O)c2sccc2OCc2ccccc2)c1 [1-83, 3-benzyloxy-N-(5-methylpyridin-3-yl)thiophene-2-carboxamide]
Second: O=C(Nc1cncnc1)c1sccc1OCc1ccccc1 [1-64, 3-benzyloxy-N-(pyrimidin-5-yl)thiophene-2-carboxamide]
The inhibition at 10 µM of the first is lower: 50% for the first, 51% for the second.

Compared with `O=C(Nc1cccnc1)c1sccc1OCc1ccsc1` [1-78, 3-(thiophen-3-ylmethoxy)-N-(pyridin-3-yl)thiophene-2-carboxamide], `O=C(Nc1cccnc1)c1sccc1OCc1cccs1` [1-77, 3-(thiophen-2-ylmethoxy)-N-(pyridin-3-yl)thiophene-2-carboxamide] is higher in inhibition at 10 µM: 59% for the first, 65% for the second.

Compared with `O=C(Nc1cccnc1)c1sccc1OCc1ccc2ccccc2c1` [1-11, 3-(naphthalen-2-ylmethoxy)-N-(pyridin-3-yl)thiophene-2-carboxamide], `N#Cc1ccccc1COc1ccsc1C(=O)Nc1cccnc1` [1-50, 3-(2-cyanobenzyloxy)-N-(pyridin-3-yl)thiophene-2-carboxamide] is higher in inhibition at 10 µM: 50% for the first, 66% for the second.

Compared with `CCOC(=O)CCCCCOc1ccccc1COc1ccsc1C(=O)Nc1cccnc1` [1-18, 6-(2-[(2-(pyridin-3-ylcarbamoyl)thiophene-3-yl)oxymethyl]phenoxy)ethyl hexanoate], `CCCCCCOc1cccc(COc2ccsc2C(=O)Nc2cccnc2)c1` [1-79, 3-(3-(hexyloxy)benzyloxy)-N-(pyridin-3-yl)thiophene-2-carboxamide] is lower in inhibition at 10 µM: 97% for the first, 60% for the second.

Compared with `CC(C)(C)C(=O)Oc1ccc(Cl)c(COc2ccsc2C(=O)Nc2cccnc2)c1` [1-23], `COC(=O)c1ccccc1COc1ccsc1C(=O)Nc1cccnc1` [1-22, 2-[(2-(pyridin-3-ylcarbamoyl)thiophene-3-yl)oxymethyl]methyl benzoate] is higher in inhibition at 10 µM: 53% for the first, 81% for the second.

`O=C(Nc1cc(Cl)ccn1)c1sccc1OCc1ccccc1` [1-6, 3-benzyloxy-N-(4-chloropyridin-2-yl)thiophene-2-carboxamide] and `O=C(Nc1ccccn1)c1sccc1OCc1ccccc1` [1-61, 3-benzyloxy-N-(pyridin-2-yl)thiophene-2-carboxamide] are the same in inhibition at 10 µM: 50% for the first, 50% for the second.

Going from `O=C(Nc1cncs1)c1sccc1OCc1ccccc1` [1-65, 3-benzyloxy-N-(thiazol-5-yl)thiophene-2-carboxamide] to `Cc1ccncc1NC(=O)c1sccc1OCc1ccccc1` [1-69, 3-benzyloxy-N-(4-methylpyridin-3-yl)thiophene-2-carboxamide], the inhibition at 10 µM rises from 61% to 65%.

Going from `O=C(Nc1cccnn1)c1sccc1OCc1ccccc1` [1-4, 3-benzyloxy-N-(pyridazin-3-yl)thiophene-2-carboxamide] to `O=C(Nc1cnccc1Cl)c1sccc1OCc1ccccc1` [1-91, 3-benzyloxy-N-(4-chloropyridin-3-yl)thiophene-2-carboxamide], the inhibition at 10 µM falls from 63% to 56%.

First: O=C(Nc1cccnc1)c1ncccc1OCc1ccccc1 [12-15, 3-benzyloxy-N-(pyridin-3-yl)pyridin-2-carboxamide]
Second: O=C(Nc1cccnc1)c1cccnc1OCc1ccccc1 [12-18, 2-benzyloxy-N-(pyridin-3-yl)pyridin-3-carboxamide]
The inhibition at 10 µM of the first is lower: 16% for the first, 22% for the second.

Compared with `O=C(Nc1cccnc1)c1sccc1OCc1ccccc1[N+](=O)[O-]` [1-21, 3-(2-nitrobenzyloxy)-N-(pyridin-3-yl)thiophene-2-carboxamide], `O=C(Nc1cccnc1)c1sc([N+](=O)[O-])cc1OCc1ccccc1` [1-14, 3-benzyloxy-5-nitro-N-(pyridin-3-yl)thiophene-2-carboxamide] is lower in inhibition at 10 µM: 93% for the first, 50% for the second.

In the case of `O=C(Nc1cccnc1)c1cncnc1OCc1ccccc1` [12-19, 4-benzyloxy-N-(pyridin-3-yl)pyrimidin-5-carboxamide], the inhibition at 10 µM is reported as 18%.

From patent publication EP4768480A1, “ALKOXY THIOPHENE ACYL ARYLAMINE COMPOUNDS AND USE THEREOF” (priority 2024, dated 2025)
